Test results taken from publication PMC10746543, “Design principles for cyclin K molecular glue degraders” (Nature Chemical Biology, 2023).
Values joined by “and” are separate entries in the source; they are usually repeats but may differ in a detail not shown here. Equal entries are not always repeated. Where two headings read alike, the source gives them in different places.

Assays:
[1] = tested on: cyclin K; test: Label-free quantitative mass spectrometry in MDA-MB-231 cells, cyclin K; type: cell-based, human
Method: (§1) MDA-MB-231 cells were treated with DMSO or a cyclin K degrader compound at 1 µM for 5 h. Cells were collected by centrifugation and washed with phosphate-buffered saline before snap freezing in liquid nitrogen. Cells were lysed by addition of lysis buffer (8 M urea, 50 mM NaCl, 50 mM 4-(2-hydroxyethyl)-1-piperazineethanesulfonic acid (EPPS) pH 8.5, and protease and phosphatase inhibitors) and homogenization by bead beating (BioSpec) for three repeats of 30 s at 2,400 rpm. Bradford assay was used to determine the final protein concentration in the clarified cell lysate. Then 50 µg of protein for each sample was reduced, alkylated and precipitated using methanol/chloroform as previously described, and the resulting washed precipitated protein was allowed to air dry. Precipitated protein was resuspended in 4 M urea, 50 mM HEPES pH 7.4, followed by dilution to 1 M urea with the addition of 200 mM EPPS, pH 8. Proteins were first digested with LysC (1:50; enzyme:protein) for 12 h at room temperature. The LysC digestion was diluted to 0.5 M urea with 200 mM EPPS pH 8 followed by digestion with trypsin (1:50; enzyme:protein) for 6 h at 37 °C. Sample digests were acidified with formic acid to a pH of 2–3 before desalting using C18 solid phase extraction plates (SOLA, Thermo Fisher Scientific). Desalted peptides were dried in a vacuum-centrifuged and reconstituted in 0.1% formic acid for liquid chromatography–mass spectrometry analysis.
(§2) Data were collected using a TimsTOF Pro2 (Bruker Daltonics) coupled to a nanoElute LC pump (Bruker Daltonics) via a CaptiveSpray nano-electrospray source. Peptides were separated on a reversed-phase C18 column (25 cm × 75 µm inner diameter, […], IonOpticks) containing an integrated captive spray emitter. Peptides were separated using a 50 min gradient of 2–30% buffer B (acetonitrile in 0.1% formic acid) with a flow rate of 250 nl min^−1 and column temperature maintained at 50 °C.
(§3) Data-dependent acquisition (DDA) was performed in Parallel Accumulation-Serial Fragmentation (PASEF) mode to determine effective ion mobility windows for downstream diaPASEF data collection. The ddaPASEF parameters included: 100% duty cycle using accumulation and ramp times of 50 ms each, one Trapped Ion Mobility Spectrometry(TIMS)-MS scan and ten PASEF ramps per acquisition cycle. The TIMS-MS survey scan was acquired between 100 m/z and 1,700 m/z and 1/K0 of 0.7–1.3 V s cm^−2. Precursors with one to five charges were selected, and those that reached an intensity threshold of 20,000 arbitrary units were actively excluded for 0.4 min. The quadrupole isolation width was set to 2 m/z for m/z < 700 and 3 m/z for m/z > 800, with the m/z between 700 m/z and 800 m/z being interpolated linearly. […] To perform diaPASEF, the precursor distribution in the DDA m/z-ion mobility plane was used to design an acquisition scheme for data-independent acquisition (DIA) data collection that included two windows in each 50 ms diaPASEF scan. Data were acquired using 16 of these 25 Da precursor double window scans (creating 32 windows) that covered the diagonal scan line for doubly and triply charged precursors, with singly charged precursors able to be excluded by their position in the m/z-ion mobility plane. These precursor isolation windows were defined between 400 m/z and 1,200 m/z and 1/K0 of 0.7–1.3 V s cm^−2.
(§4) DirectDIA mode includes first extracting the DIA data into a collection of MS2 spectra which are searched using Spectronaut’s Pulsar search engine. The search results are then used to generate a spectral library which is then employed for the targeted analysis of the DIA data. MS/MS spectra were searched against a Swissprot human database (January 2021). Database search criteria largely followed the default settings for directDIA including: tryptic with two missed cleavages, fixed carbomidomethylation of cysteine, and variable oxidation of methionine and acetylation of protein N-termini and precursor Q-value (FDR) cut-off of 0.01. […]

[2] = tested on: HEK293T cells; test: Drug sensitivity assay (CellTiter-Glo viability) with or without MLN4924 pretreatment; type: cell-based, human; settings: Supplementary Table 2
Outline: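 Luminescent ATP read-out (CellTiter-Glo) after 3 days of drug exposure, normalised to DMSO controls. Cells were HEK293T–Cas9, pretreated with 100 nM MLN4924 or DMSO for 2 h before drug dispensing.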

[3] = target: T1, CDK13 (Homo sapiens, UniProt Q14004+Q16531); test: Label-free quantitative mass spectrometry in MDA-MB-231 cells, CDK13; type: cell-based
T1 construct: endogenous in cells; host or cells: MDA-MB-231
Method: as §1, §2, §3, §4

[4] = target: T2, CDK12 (Homo sapiens, UniProt Q16531+Q9NYV4); test: Label-free quantitative mass spectrometry in MDA-MB-231 cells, CDK12; type: cell-based
T2 construct: endogenous in cells; host or cells: MDA-MB-231
T2 sequence (Q9NYV4 whole entry): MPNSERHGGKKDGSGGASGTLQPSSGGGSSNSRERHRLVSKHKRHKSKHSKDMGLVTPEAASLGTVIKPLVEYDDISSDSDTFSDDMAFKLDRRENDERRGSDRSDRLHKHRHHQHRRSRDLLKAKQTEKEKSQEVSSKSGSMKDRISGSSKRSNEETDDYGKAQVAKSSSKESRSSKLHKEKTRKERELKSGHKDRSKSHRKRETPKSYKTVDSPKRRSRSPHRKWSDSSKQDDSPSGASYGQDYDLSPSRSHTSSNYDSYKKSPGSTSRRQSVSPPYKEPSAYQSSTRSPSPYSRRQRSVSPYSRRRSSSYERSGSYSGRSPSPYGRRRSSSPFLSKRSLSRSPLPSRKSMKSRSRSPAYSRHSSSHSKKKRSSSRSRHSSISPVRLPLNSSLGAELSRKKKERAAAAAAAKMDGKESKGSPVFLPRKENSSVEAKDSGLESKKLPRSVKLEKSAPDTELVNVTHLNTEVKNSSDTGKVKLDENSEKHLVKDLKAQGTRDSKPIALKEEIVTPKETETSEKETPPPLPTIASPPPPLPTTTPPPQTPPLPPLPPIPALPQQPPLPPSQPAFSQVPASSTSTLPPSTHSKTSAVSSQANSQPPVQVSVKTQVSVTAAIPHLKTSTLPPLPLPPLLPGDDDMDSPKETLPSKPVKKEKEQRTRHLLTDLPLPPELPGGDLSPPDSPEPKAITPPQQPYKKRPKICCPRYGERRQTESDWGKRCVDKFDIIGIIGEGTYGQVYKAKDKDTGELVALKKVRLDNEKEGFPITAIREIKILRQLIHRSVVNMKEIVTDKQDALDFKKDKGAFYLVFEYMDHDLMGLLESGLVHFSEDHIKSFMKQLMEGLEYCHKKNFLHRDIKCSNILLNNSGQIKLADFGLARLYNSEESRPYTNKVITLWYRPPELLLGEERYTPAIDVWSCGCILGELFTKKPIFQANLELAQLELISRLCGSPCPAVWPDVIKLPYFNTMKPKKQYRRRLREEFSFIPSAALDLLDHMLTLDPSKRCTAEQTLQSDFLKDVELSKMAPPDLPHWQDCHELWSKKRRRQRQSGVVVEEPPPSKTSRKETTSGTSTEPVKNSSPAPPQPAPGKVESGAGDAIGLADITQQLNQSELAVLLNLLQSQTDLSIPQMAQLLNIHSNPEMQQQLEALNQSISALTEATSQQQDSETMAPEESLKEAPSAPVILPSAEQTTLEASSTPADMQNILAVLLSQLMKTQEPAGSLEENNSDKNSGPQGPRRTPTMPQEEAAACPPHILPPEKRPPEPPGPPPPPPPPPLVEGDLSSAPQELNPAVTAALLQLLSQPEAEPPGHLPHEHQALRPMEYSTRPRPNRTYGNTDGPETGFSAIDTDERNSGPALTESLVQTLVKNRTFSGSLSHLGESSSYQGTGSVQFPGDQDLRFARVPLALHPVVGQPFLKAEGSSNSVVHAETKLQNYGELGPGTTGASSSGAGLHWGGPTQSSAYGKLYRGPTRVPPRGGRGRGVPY
T2 sequence (O75909 whole entry partner): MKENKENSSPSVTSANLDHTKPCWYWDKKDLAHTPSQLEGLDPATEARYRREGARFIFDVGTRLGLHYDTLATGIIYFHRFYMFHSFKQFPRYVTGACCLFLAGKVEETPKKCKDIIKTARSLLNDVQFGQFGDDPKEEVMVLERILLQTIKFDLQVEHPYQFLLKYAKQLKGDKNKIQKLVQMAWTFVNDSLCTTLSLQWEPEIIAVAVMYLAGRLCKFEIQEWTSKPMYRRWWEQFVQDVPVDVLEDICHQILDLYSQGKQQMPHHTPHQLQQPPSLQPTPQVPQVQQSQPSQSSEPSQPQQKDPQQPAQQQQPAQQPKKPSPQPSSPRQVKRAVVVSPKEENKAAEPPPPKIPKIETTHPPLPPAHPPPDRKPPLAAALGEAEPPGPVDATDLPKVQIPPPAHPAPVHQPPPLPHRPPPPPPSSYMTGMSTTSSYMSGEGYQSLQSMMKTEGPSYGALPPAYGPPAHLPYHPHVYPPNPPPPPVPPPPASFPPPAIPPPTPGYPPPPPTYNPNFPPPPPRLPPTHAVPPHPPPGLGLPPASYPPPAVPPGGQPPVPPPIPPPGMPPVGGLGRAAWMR
T2 sequence (Q16531 2-1140 limits assumed): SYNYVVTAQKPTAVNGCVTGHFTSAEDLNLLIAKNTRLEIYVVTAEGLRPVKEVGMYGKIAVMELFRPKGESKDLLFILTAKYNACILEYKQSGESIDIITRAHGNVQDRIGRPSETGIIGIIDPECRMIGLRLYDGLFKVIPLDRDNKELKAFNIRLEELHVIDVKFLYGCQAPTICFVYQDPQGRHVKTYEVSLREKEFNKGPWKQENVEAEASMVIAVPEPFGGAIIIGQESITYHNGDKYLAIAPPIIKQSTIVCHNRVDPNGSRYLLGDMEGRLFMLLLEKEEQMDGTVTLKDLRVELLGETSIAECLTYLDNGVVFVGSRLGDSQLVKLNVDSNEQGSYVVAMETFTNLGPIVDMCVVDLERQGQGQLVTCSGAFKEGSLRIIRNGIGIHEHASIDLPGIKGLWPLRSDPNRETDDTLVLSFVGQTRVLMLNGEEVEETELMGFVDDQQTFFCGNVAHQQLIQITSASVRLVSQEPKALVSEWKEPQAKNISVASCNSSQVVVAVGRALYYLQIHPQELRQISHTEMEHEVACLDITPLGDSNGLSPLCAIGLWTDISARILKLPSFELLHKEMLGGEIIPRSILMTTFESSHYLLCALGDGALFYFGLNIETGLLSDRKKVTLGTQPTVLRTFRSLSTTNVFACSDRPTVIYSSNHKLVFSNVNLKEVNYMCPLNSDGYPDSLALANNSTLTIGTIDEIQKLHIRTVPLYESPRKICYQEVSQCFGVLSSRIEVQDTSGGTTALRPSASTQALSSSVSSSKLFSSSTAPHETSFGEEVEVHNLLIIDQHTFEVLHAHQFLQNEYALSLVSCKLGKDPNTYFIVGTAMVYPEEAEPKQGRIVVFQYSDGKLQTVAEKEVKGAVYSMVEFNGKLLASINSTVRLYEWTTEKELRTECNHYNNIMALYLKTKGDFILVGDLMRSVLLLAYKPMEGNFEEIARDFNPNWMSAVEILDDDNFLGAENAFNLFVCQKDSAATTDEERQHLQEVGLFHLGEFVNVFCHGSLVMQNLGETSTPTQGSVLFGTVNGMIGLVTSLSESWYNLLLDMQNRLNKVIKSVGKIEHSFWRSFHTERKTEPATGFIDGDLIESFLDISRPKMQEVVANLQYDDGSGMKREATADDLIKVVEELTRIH
Method: as §1, §2, §3, §4

[5] = target: T3, CDK12–cyclin K and DDB1 (Homo sapiens, UniProt Q16531+Q9NYV4, K965R); test: TR-FRET ternary complex formation assay (compound titration); type: binding; settings: for TR-FRET signal at compound concentration: replicate titrations
T3 construct: His6–CDK12 (a.a. 713–1,052); full-length or beta-propeller B domain deletion (ΔBPB: a.a. 396–705 deleted) constructs of His6–DDB1ΔBPB, StrepII–Avi–DDB1, or His6–Spy–DDB1; made in house; host or cells: Trichoplusia ni High Five insect cells (baculovirus)
T3 sequence (Q9NYV4 713-1052 K965R): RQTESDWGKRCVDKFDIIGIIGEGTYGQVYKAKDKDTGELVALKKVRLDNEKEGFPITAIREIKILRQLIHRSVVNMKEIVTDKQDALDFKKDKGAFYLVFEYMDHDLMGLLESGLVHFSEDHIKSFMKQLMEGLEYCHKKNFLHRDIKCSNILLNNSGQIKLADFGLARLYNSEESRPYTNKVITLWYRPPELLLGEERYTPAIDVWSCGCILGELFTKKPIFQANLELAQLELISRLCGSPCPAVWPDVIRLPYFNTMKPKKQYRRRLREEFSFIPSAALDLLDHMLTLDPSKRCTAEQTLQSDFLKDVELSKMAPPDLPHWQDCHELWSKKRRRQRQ
T3 sequence (O75909 1-267 partner): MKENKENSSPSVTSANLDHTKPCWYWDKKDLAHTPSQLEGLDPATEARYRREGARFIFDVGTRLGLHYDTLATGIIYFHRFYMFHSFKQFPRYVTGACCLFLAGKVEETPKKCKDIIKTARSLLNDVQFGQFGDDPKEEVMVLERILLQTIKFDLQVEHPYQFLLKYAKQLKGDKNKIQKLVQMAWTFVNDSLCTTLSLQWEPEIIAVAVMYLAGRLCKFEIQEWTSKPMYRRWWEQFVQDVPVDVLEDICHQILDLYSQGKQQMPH
T3 sequence (Q16531 whole entry): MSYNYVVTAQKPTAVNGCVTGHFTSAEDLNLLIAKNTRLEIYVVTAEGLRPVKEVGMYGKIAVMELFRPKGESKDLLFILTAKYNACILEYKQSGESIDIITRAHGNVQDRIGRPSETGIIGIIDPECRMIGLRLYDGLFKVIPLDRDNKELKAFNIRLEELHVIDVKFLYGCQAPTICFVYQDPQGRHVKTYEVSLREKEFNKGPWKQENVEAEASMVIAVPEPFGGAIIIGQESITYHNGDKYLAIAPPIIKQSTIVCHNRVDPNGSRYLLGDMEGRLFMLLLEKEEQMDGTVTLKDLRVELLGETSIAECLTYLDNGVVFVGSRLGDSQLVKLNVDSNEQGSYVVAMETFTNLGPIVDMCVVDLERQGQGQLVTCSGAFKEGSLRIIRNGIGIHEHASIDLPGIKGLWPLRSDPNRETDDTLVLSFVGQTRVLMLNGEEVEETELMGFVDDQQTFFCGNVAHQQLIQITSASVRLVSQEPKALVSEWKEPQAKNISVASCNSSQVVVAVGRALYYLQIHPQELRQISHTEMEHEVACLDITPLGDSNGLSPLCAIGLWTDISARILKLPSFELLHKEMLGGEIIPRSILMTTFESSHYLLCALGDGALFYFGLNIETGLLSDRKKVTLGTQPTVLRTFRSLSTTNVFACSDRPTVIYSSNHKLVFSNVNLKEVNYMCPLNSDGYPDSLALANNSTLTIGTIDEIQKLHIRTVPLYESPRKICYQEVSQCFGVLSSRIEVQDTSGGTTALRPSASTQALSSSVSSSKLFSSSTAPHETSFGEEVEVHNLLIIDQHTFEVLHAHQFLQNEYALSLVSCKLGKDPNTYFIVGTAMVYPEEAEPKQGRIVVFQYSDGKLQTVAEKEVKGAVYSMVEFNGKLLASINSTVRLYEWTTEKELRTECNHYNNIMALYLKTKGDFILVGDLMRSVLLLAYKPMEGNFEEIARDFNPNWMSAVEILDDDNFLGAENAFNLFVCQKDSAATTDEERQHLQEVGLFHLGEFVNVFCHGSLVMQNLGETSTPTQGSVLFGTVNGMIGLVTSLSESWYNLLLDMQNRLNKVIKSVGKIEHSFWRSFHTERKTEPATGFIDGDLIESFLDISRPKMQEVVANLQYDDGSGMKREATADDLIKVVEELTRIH
Outline: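 TR-FRET ratio 520/490 nm; 70 μs delay before read to suppress background.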

[6] = tested on: cyclin K–eGFP degradation reporter; test: Cyclin K reporter stability analysis (dual-color cyclin K–eGFP reporter); type: cell-based, human; settings: source data sheet correlations; read-out: DC50
Outline: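 HEK293T–Cas9 cells carrying the cyclin K–eGFP reporter were seeded at 1 × 10^6 ml^−1 and exposed to drug or DMSO for 5 h. Flow cytometry gave geometric means of eGFP and mCherry in round, mCherry-positive cells. The eGFP/mCherry ratio was normalized to the mean of three DMSO controls.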

[7] = label-free quantitative MS, replicate values
[8] = normalised to DMSO = 1, replicate values

CDK13 peptide count [3, 7]: 256.293 and 280.454
CDK13 peptide count (DMSO-normalised) [3, 8]: 0.3813 and 0.431
CDK12 peptide count [4, 7]: 530.324 and 557.769
CDK12 peptide count (DMSO-normalised) [4, 8]: 0.5892 and 0.5761
TR-FRET signal at compound concentration ([5]; compound concentration 0.468 nM): 0.2538 and 0.2487 and 0.2092
TR-FRET signal at compound concentration ([5]; compound concentration 2.16 nM): 0.3096 and 0.3093 and 0.2708
TR-FRET signal at compound concentration ([5]; compound concentration 3.6 nM): 0.4411 and 0.4525 and 0.4039
TR-FRET signal at compound concentration ([5]; compound concentration 7.92001 nM): 0.6962 and 0.7001 and 0.6519
TR-FRET signal at compound concentration ([5]; compound concentration 15.84 nM): 1.209 and 1.183 and 1.188
TR-FRET signal at compound concentration ([5]; compound concentration 30.96 nM): 1.971 and 1.9872 and 1.9274
TR-FRET signal at compound concentration ([5]; compound concentration 62.6401 nM): 3.092 and 3.095 and 2.939
TR-FRET signal at compound concentration ([5]; compound concentration 125.28 nM): 3.635 and 3.6 and 3.694
TR-FRET signal at compound concentration ([5]; compound concentration 244.8 nM): 4.013 and 4.0411
TR-FRET signal at compound concentration ([5]; compound concentration 993.601 nM): 3.909 and 4.092 and 4.233
TR-FRET signal at compound concentration ([5]; compound concentration 2001.6 nM): 4.11 and 4.134 and 4.272
EC50 ([5]; in vitro complex formation, 50 nM CDK12–cyclin K, 100 nM DDB1, text and figures, read-out: TR-FRET EC50): 0.035 ± 0.001 µM
EC50 ([5]; sheet MOESM7, read-out: log TR-FRET EC50 (converted)): 0.0348 µM
EC50 ([5]; source data sheet correlations, read-out: TR-FRET EC50): 0.0348 µM
DC50 [6]: 0.078 µM
SMILES: CC[C@H](CO)Nc1nc(NCCCc2cccc(C)c2)c2ncn(C(C)C)c2n1 [DS30]
cyclin K abundance (label-free MS) ([1]; individual replicates, sheet EDF7): 199.985 and 224.267
cyclin K abundance (label-free MS) [1, 7]: 199.985 and 224.267
CCNK peptide count (DMSO-normalised) [1, 8]: 0.1093 and 0.1247
average CCNK peptide count ([1]; sheet EDF7): 212.126
EC50 ([2]; Homo sapiens, HEK-293T, HEK293T viability, 72 h, compound alone, read-out: Cellular assays EC50): 0.451 µM
Toxicity rescue ([2]; MLN4924-mediated cytotoxicity rescue, 10 µM used where n.d.): 496%
